Experimental findings from patent US8231888B2, “Isoxazolines for controlling invertebrate pests” (priority 2005, dated 2012) are described below.

Common to all, as to type: in vivo
In assay [1] the test system is diamondback moth (Plutella xylostella). The experiment in a line: Test A: control of diamondback moth on radish plant, foliar spray. As to conditions: 6 days, 25° C. From the text: For evaluating control of diamondback moth (Plutella xylostella) the test unit consisted of a small open container with a 12-14-day-old radish plant inside. This was pre-infested with about 50 neonate larvae that were dispensed into the test unit via corn cob grits using a bazooka inoculator. The larvae moved onto the test plant after being dispensed into the test unit.
(§1) Test compounds were formulated using a solution containing 10% acetone, 90% water and 300 ppm X-77™ Spreader Lo-Foam Formula non-ionic surfactant containing alkylarylpolyoxyethylene, free fatty acids, glycols and isopropanol (Loveland Industries, Inc. Greeley, Colo., USA). The formulated compounds were applied in 1 mL of liquid through a SUJ2 atomizer nozzle with 1/8 JJ custom body (Spraying Systems Co. Wheaton, Ill., USA) positioned 1.27 cm (0.5 inches) above the top of each test unit. All experimental compounds in these tests were sprayed at 250 and/or 50 ppm, and the test was replicated three times. After spraying of the formulated test compound, each test unit was allowed to dry for 1 h and then a black, screened cap was placed on top. The test units were held for 6 days in a growth chamber at 25° C. and 70% relative humidity. Plant feeding damage was then visually assessed based on foliage consumed and a pest mortality rating was also counted and calculated for each test unit.

The test system of assay [2] is fall armyworm (Spodoptera frugiperda). Nature of the assay: Test B: control of fall armyworm on corn (maize) plant, foliar spray. Here is the method: as §1
For evaluating control of fall armyworm (Spodoptera frugiperda) the test unit consisted of a small open container with a 4-5-day-old corn (maize) plant inside. This was pre-infested (using a core sampler) with 10-15 1-day-old larvae on a piece of insect diet. Test compounds were formulated and sprayed at 250 and/or 50 ppm as described for Test A and replicated three times. After spraying, the test units were maintained in a growth chamber and then the control efficacy was rated for each test unit as described for Test A.

For assay [3], the system named is western flower thrips (Frankliniella occidentalis). The experiment in a line: Test D: control of western flower thrips on Soleil bean plant, contact and/or systemic. As to conditions: asterisk: observed only at 250 ppm; 6 days, 25° C. The procedure: as §1
For evaluating control of the western flower thrips (Frankliniella occidentalis) through contact and/or systemic means, the test unit consisted of a small open container with a 5-7 day old Soleil Bean plant inside. Test compounds were formulated and sprayed at 250 and/or 50 ppm, and the test was replicated three times as described for Test A. After spraying, the test units were allowed to dry for 1 hour and then 22-27 adult thrips were added to each unit and then a black, screened cap was placed on top. The test units were held for 6 days at 25° C. and 45-55% relative humidity. A mortality rating was assessed along with a plant damage rating for each test unit.

[4] abbreviates: sprayed at 250 and/or 50 ppm, no asterisk (not limited to 250 ppm).
Setting [5] is: asterisk: observed only at 250 ppm.

`CC(NC(=O)c1ccc(C2=NOC(c3cc(Cl)cc(Cl)c3)(C(F)(F)F)C2)c2ccccc12)c1ccc2ccccc2c1` (mixture of isomers) [Compound 27]: the “control efficacy (20% or less feeding damage or 80% or more mortality)” value in assay [1] (setting [4]) was “very good to excellent levels of control efficacy”. As to `CC(NC(=O)c1ccc(C2=NOC(c3cc(Cl)cc(Cl)c3)(C(F)(F)F)C2)c2ccccc12)c1ccc([N+](=O)[O-])cc1` (mixture of isomers) [Compound 28], the “control efficacy (20% or less feeding damage or 80% or more mortality)” value in assay [1] (setting [4]) and in assay [2] (setting [4]) was “very good to excellent levels of control efficacy” each time.

For `COC(=O)C(NC(=O)c1ccc(C2=NOC(c3cc(Cl)cc(Cl)c3)(C(F)(F)F)C2)c2ccccc12)c1ccccc1` (mixture of isomers) [Compound 29], the “control efficacy (20% or less feeding damage or 80% or more mortality)” value in assay [1] (setting [4]) and in assay [2] (setting [4]) was “very good to excellent levels of control efficacy” each time. For `CC(NC(=O)c1ccc(C2=NOC(c3cc(Cl)cc(Cl)c3)(C(F)(F)F)C2)c2ccccc12)c1ccc(Cl)cc1` (mixture of isomers) [Compound 30], the “control efficacy (20% or less feeding damage or 80% or more mortality)” value in assay [1] (setting [4]) and in assay [2] (setting [4]) was “very good to excellent levels of control efficacy” each time. With `CC(NC(=O)c1ccc(C2=NOC(c3cc(Cl)cc(Cl)c3)(C(F)(F)F)C2)c2ccccc12)c1ccc(F)cc1` (mixture of isomers) [Compound 31], the “control efficacy (20% or less feeding damage or 80% or more mortality)” value in assay [1] (setting [4]) and in assay [2] (setting [4]) was “very good to excellent levels of control efficacy” throughout. With `O=C(NCc1cccnc1)c1ccc(C2=NOC(c3cc(Cl)cc(Cl)c3)(C(F)(F)F)C2)c2ccccc12` (stereo not drawn) [Compound 6], the “control efficacy (20% or less feeding damage or 80% or more mortality)” value in assay [1] (setting [4]) and in assay [2] (setting [4]) was “very good to excellent levels of control efficacy” each time. Consider `O=C(NCc1ccncc1)c1ccc(C2=NOC(c3cc(Cl)cc(Cl)c3)(C(F)(F)F)C2)c2ccccc12` (stereo not drawn) [Compound 7], for which the “control efficacy (20% or less feeding damage or 80% or more mortality)” value in assay [1] (setting [4]) and in assay [2] (setting [4]) was “very good to excellent levels of control efficacy” in each case.

As for `CCN(C)C(=O)c1ccc(C2=NOC(c3cc(Cl)cc(Cl)c3)(C(F)(F)F)C2)c2ccccc12` (stereo not drawn) [Compound 9], the “control efficacy (20% or less feeding damage or 80% or more mortality)” value in assay [1] (setting [4]) and in assay [2] (setting [4]) was “very good to excellent levels of control efficacy” in each case.

For `CNC(=O)c1ccc(C2=NOC(c3cc(Cl)cc(Cl)c3)(C(F)(F)F)C2)c2ccccc12` (stereo not drawn) [Compound 12], the “control efficacy (20% or less feeding damage or 80% or more mortality)” value in assay [1] (setting [4]) and in assay [2] (setting [4]) was “very good to excellent levels of control efficacy” each time. In the case of `Cc1cc(C)cc(C2(C(F)(F)F)CC(c3ccc(C(=O)NCc4ccccn4)c4ccccc34)=NO2)c1` (stereo not drawn) [Compound 22], the “control efficacy (20% or less feeding damage or 80% or more mortality)” value in assay [1] (setting [4]) and in assay [2] (setting [4]) was “very good to excellent levels of control efficacy” in each case. With `O=C(NCc1ccccn1)c1ccc(C2=NOC(c3ccc(Cl)c(Cl)c3)(C(F)(F)F)C2)c2ccccc12` (stereo not drawn) [Compound 23], the “control efficacy (20% or less feeding damage or 80% or more mortality)” value in assay [1] (setting [4]) and in assay [2] (setting [4]) was “very good to excellent levels of control efficacy” each time.

For `O=C(NCc1ccccn1)c1ccc(C2=NOC(c3cccc(Cl)c3)(C(F)(F)F)C2)c2ccccc12` (stereo not drawn) [Compound 25], in assay [2] (setting [4]), the “control efficacy (20% or less feeding damage or 80% or more mortality)” value is “very good to excellent levels of control efficacy”. As for `CCC(C)NC(=O)c1ccc(C2=NOC(c3cc(Cl)cc(Cl)c3)(C(F)(F)F)C2)c2ccccc12` (stereo not drawn) [Compound 33], the “control efficacy (20% or less feeding damage or 80% or more mortality)” value in assay [3] is on record as “very good to excellent levels of control efficacy”. As to `NC(=O)c1ccc(C2=NOC(c3cc(Cl)cc(Cl)c3)(C(F)(F)F)C2)c2ccccc12` (stereo not drawn) [Compound 36], the “control efficacy (20% or less feeding damage or 80% or more mortality)” value in assay [1] (setting [4]) and in assay [2] (setting [4]) was “very good to excellent levels of control efficacy” each time. In the case of `O=C(N[C@H]1CCCc2ccccc21)c1ccc(C2=NOC(c3cc(Cl)cc(Cl)c3)(C(F)(F)F)C2)c2ccccc12` (stereo partly drawn) [Compound 38], the “control efficacy (20% or less feeding damage or 80% or more mortality)” value in assay [1] (setting [4]) was “very good to excellent levels of control efficacy”.

With `O=C(O)CNC(=O)c1ccc(C2=NOC(c3cc(Cl)cc(Cl)c3)(C(F)(F)F)C2)c2ccccc12` (stereo not drawn) [Compound 43], in assay [1] (setting [4]), the “control efficacy (20% or less feeding damage or 80% or more mortality)” value is on record as “very good to excellent levels of control efficacy”. Take `CC(=O)NNC(=O)c1ccc(C2=NOC(c3cc(Cl)cc(Cl)c3)(C(F)(F)F)C2)c2ccccc12` (stereo not drawn) [Compound 45]: the “control efficacy (20% or less feeding damage or 80% or more mortality)” value in assay [1] (setting [4]) and in assay [3] was “very good to excellent levels of control efficacy” each time. Regarding `NCCNC(=O)c1ccc(C2=NOC(c3cc(Cl)cc(Cl)c3)(C(F)(F)F)C2)c2ccccc12` (stereo not drawn) [Compound 47], the “control efficacy (20% or less feeding damage or 80% or more mortality)” value in assay [1] (setting [4]) and in assay [3] was “very good to excellent levels of control efficacy” in each case. For the compound `NCCCCCCNC(=O)c1ccc(C2=NOC(c3cc(Cl)cc(Cl)c3)(C(F)(F)F)C2)c2ccccc12` (stereo not drawn) [Compound 50], the “control efficacy (20% or less feeding damage or 80% or more mortality)” value in assay [1] (setting [4]) is recorded as “very good to excellent levels of control efficacy”.

`O=C(NCc1ccccn1)c1ccc(C2=NOC(c3cc(Cl)cc(Cl)c3)(C(F)(F)F)C2)c2cccnc12` (stereo not drawn) [Compound 103, 5-[5-(3,5-dichlorophenyl)-4,5-dihydro-5-(trifluoromethyl)-3-isoxazolyl]-N-(2-pyridinylmethyl)-8-quinolinecarboxamide]: the “control efficacy (20% or less feeding damage or 80% or more mortality)” value in assay [1] (setting [4]) and in assay [2] (setting [4]) was “very good to excellent levels of control efficacy” throughout. For `O=C(NCc1ccccn1)c1ccc(C2=NOC(c3cc(Cl)cc(Cl)c3)(C(F)(F)F)C2)c2cnccc12` (stereo not drawn) [Compound 105], the “control efficacy (20% or less feeding damage or 80% or more mortality)” value in assay [1] (setting [4]) is given as “very good to excellent levels of control efficacy”. `O=C(NCc1ccccn1)c1ccc(C2=NOC(c3cc(Cl)cc(Cl)c3)(C(F)(F)F)C2)c2ncccc12` (stereo not drawn) [Compound 106]: the “control efficacy (20% or less feeding damage or 80% or more mortality)” value in assay [1] (setting [4]) and in assay [2] (setting [5]) was “very good to excellent levels of control efficacy” in each case. Take `O=C(NCC(F)(F)F)c1ccc(C2=NOC(c3cc(Cl)cc(Cl)c3)(C(F)(F)F)C2)c2ncccc12` (stereo not drawn) [Compound 107]: the “control efficacy (20% or less feeding damage or 80% or more mortality)” value in assay [1] (setting [5]) and in assay [2] (setting [5]) was “very good to excellent levels of control efficacy” throughout. For `FC(F)(F)C1(c2cc(Cl)cc(Cl)c2)CC(c2ccc(C(=S)NCc3ccccn3)c3cccnc23)=NO1` (stereo not drawn) [Compound 108], the “control efficacy (20% or less feeding damage or 80% or more mortality)” value in assay [1] (setting [5]) is reported as “very good to excellent levels of control efficacy”. With `FC(F)(F)CNC(=S)c1ccc(C2=NOC(c3cc(Cl)cc(Cl)c3)(C(F)(F)F)C2)c2ncccc12` (stereo not drawn) [Compound 109], the “control efficacy (20% or less feeding damage or 80% or more mortality)” value in assay [1] (setting [5]) was “very good to excellent levels of control efficacy”. `O=C(NCC(F)(F)F)c1ccc(C2=NOC(c3ccnc(Cl)c3)(C(F)(F)F)C2)c2ccccc12` (stereo not drawn) [Compound 201]: the “control efficacy (20% or less feeding damage or 80% or more mortality)” value in assay [1] (setting [4]) and in assay [2] (setting [4]) was “very good to excellent levels of control efficacy” each time. As to `O=C(NCc1ccccn1)c1ccc(C2=NOC(c3ccnc(Cl)c3)(C(F)(F)F)C2)c2ccccc12` (stereo not drawn) [Compound 202], the “control efficacy (20% or less feeding damage or 80% or more mortality)” value in assay [1] (setting [4]) and in assay [2] (setting [4]) was “very good to excellent levels of control efficacy” throughout.
